Reference: PMC2972358 (Journal of molecular biology, 2010)
Where two headings read alike, the source gives them in different places. Bridges are numbered along the chain shown (N, C = ends). Where no end group is shown, it is not given here.

What was measured:
human MC1R [1] = target: T1, human MC1R (Homo sapiens, UniProt Q01726); experiment: Eu-NDP-MSH displacement binding assay, MC1R
human MC4R = human MC4R (Homo sapiens, UniProt P32245); experiment: Eu-NDP-MSH displacement binding assay, MC4R
human MC1R [2] = target: T1, human MC1R; details: at high concentration, printed in the Ki column, cited from earlier work
[3] = target: human melanocortin receptor MC1R (Homo sapiens, UniProt Q01726); assay type: cell-based; details: absence of NDP-MSH; basal response taken as zero; HEK-293 cells with human MC1R
human melanocortin receptor MC1R, sequence (Q01726 whole entry): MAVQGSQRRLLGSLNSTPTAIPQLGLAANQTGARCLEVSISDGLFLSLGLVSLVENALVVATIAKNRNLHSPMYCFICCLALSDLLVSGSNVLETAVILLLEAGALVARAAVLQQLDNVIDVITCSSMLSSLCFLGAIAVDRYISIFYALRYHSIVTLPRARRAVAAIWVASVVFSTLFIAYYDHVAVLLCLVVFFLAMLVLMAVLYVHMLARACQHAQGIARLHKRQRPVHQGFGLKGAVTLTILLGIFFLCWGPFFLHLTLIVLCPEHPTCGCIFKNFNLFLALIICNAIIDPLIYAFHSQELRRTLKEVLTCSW

T1 sequence (Q01726 whole entry): as above
human MC4R, sequence (P32245 whole entry): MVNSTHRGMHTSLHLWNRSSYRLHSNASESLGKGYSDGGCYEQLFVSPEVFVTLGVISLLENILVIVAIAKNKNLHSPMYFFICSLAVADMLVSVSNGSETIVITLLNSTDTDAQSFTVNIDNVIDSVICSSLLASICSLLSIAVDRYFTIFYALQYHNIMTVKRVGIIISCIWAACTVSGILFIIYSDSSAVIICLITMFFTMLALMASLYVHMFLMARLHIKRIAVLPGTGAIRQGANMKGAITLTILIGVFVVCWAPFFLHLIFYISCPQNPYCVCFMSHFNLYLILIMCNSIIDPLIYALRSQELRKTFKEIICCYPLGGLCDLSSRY

For “Ac-KKVVRPRTPLSAPCVATRNSCKPPAPACCDPCASCYCRFFNAFCYCRVLSLNC-NH2 (disulfide 14-29, 21-35, 28-46, 32-53, 37-44) [chi(+1 −1 +1)]”, which Ki (human MC1R [1]) is on record?
The Ki was 4.9 ± 1.1 nM.

And the MC1R fold diff. (human MC1R [1]; fold difference of MC1R Ki relative to ASIP [chi(+1 +1 +1)])?
The MC1R fold diff. was 7.0.

What about the Ki (human MC4R) of the same substance?
Its Ki is 2.1 ± 0.3 nM.

What about the MC4R fold diff. (human MC4R; fold difference of MC4R Ki relative to ASIP [chi(+1 +1 +1)]) of the same substance?
The MC4R fold diff. was 1.6.

Which “MC1R suppression of NDP-MSH binding (partial displacement of agonist)” value (human MC1R [2]) does the source give for “CVRLHESCLGQQVPCCDPAATCYCRFFNAFCYCR (also: bicyclic or more (positions not given here)) [chi(−1 −1 0)]” here?
The value was 26%.

For “CVRLHESCLGQQVPCCDPAATCYCRFFRSACYCR (also: bicyclic or more (positions not given here)) [chi(−1 +1 0)]”, which “Effect on cAMP production at MC1R (functional class)” value [3] is on record?
The value was “agonists”.

Which results are given for “CVRLHESCLGQQVPCCDPCATCYCRFFNAFCYCRKLGTAMNPCSRT (bicyclic or more) [AgRP [chi(−1 −1 −1)], reference compound]”?
MC1R suppression of NDP-MSH binding (partial displacement of agonist) (human MC1R [2]): 47%; MC1R suppression of NDP-MSH binding (partial displacement of agonist) (human MC1R [2]; listed as chi(−1 −1 −1)): 47%
